Experimental data reported in US20250134902A1, “DRUG REPURPOSING FOR DELAYED TREATMENT OF ISCHEMIC STROKE” (UNIVESRITY OF NORTH TEXAS HEALTH SCIENCE CENTER, priority 2022, published 2025).

Experiments:
[1] = target: T1, human Sigma-1 receptor (S1R) (Homo sapiens, UniProt Q99720); experiment: Radioligand competition binding at Sigma-1 receptor ([3H]-(+)-pentazocine, MCF-7-hS1R)
T1 construct: expressed in transfected cells
Method: Measuring receptor density with radioligand binding.
Measuring the ligand affinities at SIR and S2R receptors by radioligand binding. […] Binding conditions were the same as described previously for the S1R (Schetz, et al., 2007): binding buffer (Tris 50 mM, pH=8.1 at 37° C.), ice-cold wash buffer (Tris 10 mM, pH=8.1 at 0-2° C.), and incubation time (3 hrs at 37° C.) with shaking. Non-specific binding for the S1R and S2R was determined in the presence of 5 μM BD1063 and […] haloperidol, respectively. Following incubation, receptors were collected via rapid filtration through GF/C filters (Brandel, Gaithersburg, MD) followed by washing three times with 3 mL of ice-cold wash buffer. Dried filters were transferred to vials filled with 3.5 ml of scintillation fluid, and the radioactivity was quantified on a liquid scintillation analyzer (TRICARB® 2800TR) from Perkin Elmer (Saint Louis, MO). Mean values from duplicate or triplicate determinations are reported along with their associated standard error of the mean (SEM). Ki values were calculated from IC50 values using the Cheng-Prusoff equation. The concentration of membrane protein was determined using a PIERCE® BCA Protein Assay kit (Life Technologies, Grand Island, NY) following the manufacturer's protocol.
Referring to FIG. 1, the selectivity of potential S1R ligands over S2R was empirically evaluated. Human MCF-7 cells were used as the source of the S2R because these cells express the endogenous S2R (Vilner, John, et al., 1995; Wu & Bowen, 2008) but lack detectable levels of the S1R, allowing unambiguous detection of S2R activity in untransfected cells (Schetz, et al., 2007). MCF-7 cells stably expressing the cloned human S1R were used as the source of S1R.

neuronal MN9D cell line = experiment: BDNF secretion via in situ ELISA; assay type: cell-based; details: 10 μM, 24 hrs, MN9D cells; normalized to maximal response of 10 μM 4-PPBP; mean ± SEM; asterisk = significantly different from 4-PPBP
Description: Measuring BDNF secretion via in situ ELISA. […] The in situ ELISA improves on traditional ELISA by seeding BDNF-secreting cells directly into the wells pre-coated with an anti-BDNF primary antibody. BDNF secreted by these cells is immediately captured by the primary antibody, drastically increasing the sensitivity and reproducibility of the ELISA assay. Intact cells are removed […] the addition of the secondary and tertiary antibodies. The amount of BDNF secreted from the neuronal MN9D cells was quantified using an in situ ELISA assay developed using the BDNF EMAX® ImmunoAssay kit (Cat. No. G7611, Promega, Madison, WI). Briefly, a NUNC™ MAXISORP™ flat-bottom, polystyrene, 96-well immunoplate was coated for 48 hrs at 4° C. with an anti-BDNF monoclonal antibody diluted 1:1000 v/v in carbonate buffer containing 25 mM sodium bicarbonate and 25 mM sodium carbonate, pH 9.7. Unbound antibody was removed by washing 5 times with 150 μL of TBST buffer (20 mM Tris-HCl, pH7.6, 150 mM NaCl, and 0.05% (v/v) TWEEN® 20), before blocking non-specific sites first with blocking buffer for 1 hr and then with culture medium for 2 hrs. Cells were seeded at 35,000 cells per well and incubated overnight at 37° C. in a humidified CO2 incubator. The following day, the wells were replaced with fresh culture media containing either experimental compounds or vehicle controls, then incubated for an additional 24 hours. In addition, on the same plate, but in separate wells, BDNF standards were added ranging in concentration from 15.6-250 pg/mL. After 24 hrs incubation with experimental compounds, the media was aspirated and 100 μL of Dulbecco's phosphate saline (D-PBS without Ca^2+ and Mg^2+ supplemented with 5 mM EDTA) was added to each well and incubated for 15 min at 37° C. to promote cell lifting. Cells were then detached from the bottom of wells by triturating in the center and around the edges of the well. After removing all cell debris, the wells were rinsed five times with 150 μL of TBST. The plate was then incubated with 1:500 v/v diluted polyclonal anti-human BDNF antibody for 2 hrs at room temperature. This antibody was removed, and wells were washed five times with 150 μL of TBST, before incubating with 1:200 v/v diluted polyclonal Anti-IgY HRP conjugate for 2 hrs at room temperature. Wells were then washed five times with 150 μL of TBST and the remaining specifically bound polyclonal antibody was detected with the 50 μL colorimetric HRP substrate 3,3′,5,5′-Tetramethylbenzidine (TMB). The reaction was terminated with 50 μL of 1 M HCl and the color intensity was quantified by measuring the absorbance at 450 nm using a FLEXSTATION® 3 plate reader (Molecular Devices, Sunnyvale, CA). […] A one-way ANOVA with a Bonferroni multiple comparisons post-hoc analysis (P<0.05) was applied to determine significant differences between groups.
Further, BDNF secreted from MN9D cells can be detected 24 hours after treatment with S1R ligand, whereas BDNF secreted from the B104 cell line takes 7 days to be detected (Fujimoto, et al., 2012).
An in situ ELISA approach was utilized because of its improved sensitivity related to its rapid capture of secreted BDNF (Balkowiec & Katz, 2000; Dalwadi, et al., 2017). […] Values are averages of 2-10 experiments±SEM, and each experiment was performed in triplicate. Statistical significance at P<0.05 was determined by ANOVA followed by a Bonferroni's post-hoc test and are marked with an asterisk.

[2] = source not stated; cited from earlier work

T1 sequence (Q99720 whole entry): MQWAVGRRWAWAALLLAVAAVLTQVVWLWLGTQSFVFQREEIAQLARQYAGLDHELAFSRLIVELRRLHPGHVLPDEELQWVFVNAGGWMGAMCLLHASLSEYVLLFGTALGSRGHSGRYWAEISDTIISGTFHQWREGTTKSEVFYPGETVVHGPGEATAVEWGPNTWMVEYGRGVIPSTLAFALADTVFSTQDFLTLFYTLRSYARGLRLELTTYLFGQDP

CCN(CC)CCOCCOC(=O)C(CC)(CC)c1ccccc1 [Oxeladin]
selective for S1R over S2R [1]: 9 fold
Ki ([1]; displacement of 0.5 nM [3H]-(+)-pentazocine, MCF-7 cells expressing human S1R, average of 2-3 experiments ± SEM, read-out: S1R affinity (Ki)): 25 ± 4.3 nM
S2R/S1R ratio (Ki S2R/Ki S1R) ([1]; selectivity for S1R over S2R): 6
Efficacy of BDNF secretion (neuronal MN9D cell line): 0.55 ± 0.04
LogP [2]: 4.43
